Test results from paper PMC6299220 (mBio, 2018).
In brackets after ≈: the same amount, converted by molar mass. Like-named read-outs stand apart in the source and are kept apart here.

Legend:
[1] = physchem; settings: pH 7.4, aqueous buffer, kinetic from dmso stock
[2] = system: M. tuberculosis H37Rv; test: microbe, parasite or virus in culture; assay type: cell-based, Mycobacterium tuberculosis
[3] = in vitro; settings: mouse, microsomes
[4] = in vitro; settings: African green monkey
[5] = mouse, microsomes
[6] = Mouse liver microsomal (MLM) stability; settings: mouse, liver microsomes
[7] = target: KasA (Mycobacterium tuberculosis, UniProt P9WQD9); test: Microscale thermophoresis (MST) binding assay; settings: 49.5 nM labeled KasA
[8] = Mycobacterium tuberculosis, H37RV
[9] = MLM stability t1/2 without NADPH

Chain of KasA (P9WQD9 whole entry): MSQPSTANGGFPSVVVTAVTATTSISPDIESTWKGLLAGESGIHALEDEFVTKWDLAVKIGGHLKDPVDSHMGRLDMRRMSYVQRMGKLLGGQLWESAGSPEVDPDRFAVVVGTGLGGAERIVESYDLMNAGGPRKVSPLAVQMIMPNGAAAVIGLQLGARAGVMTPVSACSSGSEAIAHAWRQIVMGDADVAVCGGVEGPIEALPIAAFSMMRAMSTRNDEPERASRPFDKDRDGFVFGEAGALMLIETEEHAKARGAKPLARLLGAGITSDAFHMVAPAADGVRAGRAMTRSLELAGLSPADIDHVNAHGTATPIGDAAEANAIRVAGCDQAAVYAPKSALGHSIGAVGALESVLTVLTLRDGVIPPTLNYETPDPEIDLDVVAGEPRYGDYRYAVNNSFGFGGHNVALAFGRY

In the case of `CCCCS(=O)(=O)Nc1ccc2cnn(CC)c2c1` [5a-3, N-(1-Ethyl-1H-indazol-6-yl)butane-1-sulfonamide], the solubility kinetic [1] is reported as 472 µM (≈ 133 µg/mL), the MIC [2, 8] is reported as 6.2 µM (≈ 1.74 µg/mL) and the half-life ([3]; MLM stability t1/2) is reported as 1.29 min. It also gave a half-life [3, 9] greater than 3060 min, a CC50 [4] of 44.4 µM and an MLM stability clint [5] of 536 μl/mi/mg protein.

In the case of `CCCCS(=O)(=O)Nc1ccc2cnn(CCC)c2c1` [5a-4, N-(1-Propyl-1H-indazol-6-yl)butane-1-sulfonamide], the solubility kinetic [1] is reported as 130 µM (≈ 38.4 µg/mL), the MIC [2, 8] is reported as greater than 100 µM and the half-life ([3]; MLM stability t1/2) is reported as 0.753 min. For the same compound, the half-life [3, 9] was greater than 3060 min and the MLM stability clint [5] was 921 μl/mi/mg protein.

`CCCCS(=O)(=O)Nc1ccc2cnn(C(C)C)c2c1` [5a-5, N-(1-Isoproply-1H-indazol-6-yl)butane-1-sulfonamide] gave a solubility kinetic [1] greater than 500 µM, an MIC [2, 8] greater than 100 µM and a half-life ([3]; MLM stability t1/2) of 0.878 min. The half-life [3, 9] was greater than 3060 min and the MLM stability clint [5] was 789 μl/mi/mg protein.

`CCCCS(=O)(=O)Nc1ccc2cnn(-c3ccccc3)c2c1` [5a-6, N-(1-Phenyl-1H-indazol-6-yl)butane-1-sulfonamide] showed a solubility kinetic [1] of 33.7 µM (≈ 11.1 µg/mL), an MIC [2, 8] greater than 100 µM and a half-life ([3]; MLM stability t1/2) of 0.505 min. For the same compound, the half-life [3, 9] was greater than 3060 min and the MLM stability clint [5] was 1,370 μl/mi/mg protein.

Work on `CCCCS(=O)(=O)Nc1ccc2cnn(Cc3ccccc3)c2c1` [5a-7, N-(1-Benzyl-1H-indazol-6-yl)butane-1-sulfonamide] yielded a solubility kinetic [1] of 33.8 µM (≈ 11.6 µg/mL), an MIC [2, 8] greater than 100 µM and a half-life ([3]; MLM stability t1/2) of 2.88 min. It also gave a half-life [3, 9] greater than 3060 min and an MLM stability clint [5] of 241 μl/mi/mg protein.

In the case of `Cn1ncc2ccc(NS(C)(=O)=O)cc21` [5a-8, N-(1-Methyl-1H-indazol-6-yl)methanesulfonamide], the MIC [2, 8] is reported as greater than 100 µM.

With `CCS(=O)(=O)Nc1ccc2cnn(C)c2c1` [5a-9, N-(1-Methyl-1H-indazol-6-yl)ethanesulfonamide] the MIC [2, 8] was greater than 100 µM.

With `CCCS(=O)(=O)Nc1ccc2cnn(C)c2c1` [5a-10, N-(1-Methyl-1H-indazol-6-yl)propane-1-sulfonamide] the MIC [2, 8] was 12.5 µM (≈ 3.17 µg/mL).

`CC(C)S(=O)(=O)Nc1ccc2cnn(C)c2c1` [5a-11, N-(1-Methyl-1H-indazol-6-yl)propane-2-sulfonamide] gave an MIC [2, 8] greater than 100 µM.

In the case of `CCCCCS(=O)(=O)Nc1ccc2cnn(C)c2c1` [5a-12, N-(1-Methyl-1H-indazol-6-yl)pentane-1-sulfonamide], the “improvement in MIC/whole-cell activity over DG167” value [2] is reported as 2 fold, the MIC [2, 8] is reported as 0.2 µM (≈ 0.0563 µg/mL) and the CC50 [4] is reported as greater than 100 µM.

Work on `CCCCCCS(=O)(=O)Nc1ccc2cnn(C)c2c1` [5a-13, N-(1-Methyl-1H-indazol-6-yl)hexane-1-sulfonamide] yielded an MIC [2, 8] greater than 100 µM and a CC50 [4] greater than 170 µM.

Work on `Cn1ncc2ccc(NS(=O)(=O)CCCCC#N)cc21` [5a-14, 4-Cyano-N-(1-methyl-1H-indazol-6-yl)butane-1-sulfonamide] yielded an MIC [2, 8] of 3.1 µM (≈ 0.906 µg/mL) and a CC50 [4] greater than 100 µM.

`COCCCCS(=O)(=O)Nc1ccc2cnn(C)c2c1` [5a-15, 4-Methoxy-N-(1-methyl-1H-indazol-6-yl)butane-1-sulfonamide] showed an MIC [2] greater than 100 µM, an MIC [2, 8] greater than 100 µM and a CC50 [4] greater than 100 µM.

`COCCC(C)CCS(=O)(=O)Nc1ccc2cnn(C)c2c1` (centres unmarked) [5a-16, 5-Methoxy-3-methyl-N-(1-methyl-1H-indazol-6-yl)pentane-1-sulfonamide] showed an MIC [2, 8] greater than 100 µM.

In the case of `CCCC(CC)S(=O)(=O)Nc1ccc2cnn(C)c2c1` (centres unmarked) [5a-17, N-(1-Methyl-1H-indazol-6-yl)hexane-3-sulfonamide], the MIC [2, 8] is reported as greater than 100 µM and the CC50 [4] is reported as greater than 100 µM.

Compound `CCCC(C)S(=O)(=O)Nc1ccc2cnn(C)c2c1` (centres unmarked) [5a-18, N-(1-Methyl-1H-indazol-6-yl)pentane-2-sulfonamide] has an MIC [2, 8] greater than 100 µM and a CC50 [4] greater than 100 µM.

Compound `CC(C)CCCS(=O)(=O)Nc1ccc2cnn(C)c2c1` [5a-19, 4-Methyl-N-(1-methyl-1H-indazol-6-yl)pentane-1-sulfonamide] has an MIC [2, 8] greater than 100 µM.

`Cc1ccc(S(=O)(=O)Nc2ccc3cnn(C)c3c2)cc1` [5a-20, 4-Methyl-N-(1-methyl-1H-indazol-6-yl)benzenesulfonamide] showed an MIC [2, 8] of 50 µM (≈ 15.1 µg/mL).

In the case of `Cn1ncc2ccc(NS(=O)(=O)Cc3ccccc3)cc21` [5a-21, N-(1-Methyl-1H-indazol-6-yl)-1-phenylmethanesulfonamide], the MIC [2, 8] is reported as greater than 100 µM.

Compound `Cn1ncc2ccc(NS(=O)(=O)CCc3ccccc3)cc21` [5a-22, N-(1-Methyl-1H-indazol-6-yl)-2-phenylethane-1-sulfonamide] has an MIC [2, 8] greater than 100 µM and a CC50 [4] of 19.8 µM.

In the case of `Cn1ncc2ccc(NS(=O)(=O)C3CC3)cc21` [5a-23, N-(1-Methyl-1H-indazol-6-yl)cyclopropanesulfonamide], the MIC [2, 8] is reported as greater than 100 µM.

With `Cn1ncc2ccc(NS(=O)(=O)C3CCC3)cc21` [5a-24, N-(1-Methyl-1H-indazol-6-yl)cyclobutanesulfonamide] the MIC [2, 8] was greater than 100 µM.

`Cn1ncc2ccc(NS(=O)(=O)C3CCCC3)cc21` [5a-25, N-(1-Methyl-1H-indazol-6-yl)cyclopentanesulfonamide] showed an MIC [2, 8] greater than 100 µM.

`Cn1ncc2ccc(NS(=O)(=O)C3CCCCC3)cc21` [5a-26, N-(1-Methyl-1H-indazol-6-yl)cyclohexanesulfonamide] gave an MIC [2, 8] of 12.5 µM (≈ 3.67 µg/mL).

With `Cn1ncc2ccc(NS(=O)(=O)C3CCC(C(F)(F)F)CC3)cc21` (centres unmarked) [5a-27, N-(1-Methyl-1H-indazol-6-yl)-4-(trifluoromethyl)cyclohexane-1-sulfonamide] the MIC [2, 8] was greater than 100 µM.

`Cn1ncc2ccc(NS(=O)(=O)N3CCCCC3)cc21` [5a-28, N-(1-Methyl-1H-indazol-6-yl)piperidine-1-sulfonamide] gave an MIC [2, 8] greater than 100 µM.

With `Cn1ncc2ccc(NS(=O)(=O)CC3CCCCC3)cc21` [5a-29, 1-Cyclohexyl-N-(1-methyl-1H-indazol-6-yl)methanesulfonamide] the MIC [2, 8] was greater than 100 µM.

With `[2H]C([2H])([2H])n1ncc2ccc(NS(=O)(=O)CCCC)cc21` [5a-30, N-(1-(Methyl-d3)-1H-indazol-6-yl)butane-1-sulfonamide] the solubility kinetic [1] was greater than 500 µM, the half-life [3] was 16.8 min and the half-life [3, 9] was greater than 3060 min. The CC50 [4] was 180 µM and the MLM stability clint [5] was 41.3 μl/mi/mg protein.

With `[2H]C([2H])([2H])n1ncc2ccc(NS(=O)(=O)CCCCC)cc21` [5a-31, N-(1-(Methyl-d3)-1H-indazol-6-yl)pentane-1-sulfonamide] the “improvement in MIC/whole-cell activity over DG167” value [2] was 2 fold, the MIC [2, 8] was 0.2 µM (≈ 0.0569 µg/mL) and the CC50 [4] was greater than 100 µM.

Compound `[2H]C([2H])([2H])n1ncc2ccc(NS(=O)(=O)CCCCOC)cc21` [5a-32, 4-Methoxy-N-(1-(methyl-d3)-1H-indazol-6-yl)butane-1-sulfonamide] has an MIC [2, 8] greater than 100 µM and a CC50 [4] greater than 100 µM.

For `CCCCNC(=S)Nc1ccc2cnn(C)c2c1` [5b-1, 1-Butyl-3-(1-methyl-1H-indazol-6-yl)thiourea], the solubility kinetic [1] was 131 µM (≈ 34.4 µg/mL), the MIC [2, 8] was 3.1 µM (≈ 0.813 µg/mL) and the half-life ([3]; MLM stability t1/2) was 1.17 min. The half-life [3, 9] was greater than 3060 min, the CC50 [4] was 25 µM and the MLM stability clint [5] was 595 μl/mi/mg protein.

`CCCCNC(=O)Nc1ccc2cnn(C)c2c1` [5b-2, 1-Butyl-3-(1-methyl-1H-indazol-6-yl)urea] gave an MIC [2, 8] greater than 100 µM.

In the case of `CCC(=O)Nc1ccc2cnn(C)c2c1` [5c-1, N-(1-methyl-1H-indazol-6-yl)propionamide], the solubility kinetic [1] is reported as 472 µM (≈ 95.9 µg/mL), the MIC [2, 8] is reported as greater than 100 µM and the half-life ([3]; MLM stability t1/2) is reported as 1.29 min. The MLM stability clint [5] was 536 μl/mi/mg protein.

In the case of `CCCCC(=O)Nc1ccc2cnn(C)c2c1` [5c-2, N-(1-Methyl-1H-indazol-6-yl)pentanamide], the solubility kinetic [1] is reported as greater than 500 µM, the MIC [2, 8] is reported as greater than 100 µM and the half-life ([3]; MLM stability t1/2) is reported as 0.668 min. For the same compound, the half-life [3, 9] was 13.1 min and the MLM stability clint [5] was 1,040 μl/mi/mg protein.

In the case of `CCOC(=O)Nc1ccc2cnn(C)c2c1` [5d-1, Ethyl (1-methyl-1H-indazol-6-yl)carbamate], the solubility kinetic [1] is reported as greater than 500 µM, the MIC [2, 8] is reported as greater than 100 µM and the half-life ([3]; MLM stability t1/2) is reported as 1.16 min. It also gave a CC50 [4] of 110 µM and an MLM stability clint [5] of 597 μl/mi/mg protein.

Work on `CCCOC(=O)Nc1ccc2cnn(C)c2c1` [5d-2, n-propyl (1-methyl-1H-indazol-6-yl)carbamate] yielded an MIC [2, 8] greater than 100 µM and a CC50 [4] of 6.7 µM.

`CCCCOC(=O)Nc1ccc2cnn(C)c2c1` [5d-3, Butyl (1-methyl-1H-indazol-6-yl)carbamate] showed an MIC [2, 8] greater than 100 µM and a CC50 [4] of 25 µM.

Compound `CCCCS(=O)(=O)N(C)c1ccc2cnn(C)c2c1` [5e, N-Methyl-N-(1-methyl-1H-indazol-6-yl)butane-1-sulfonamide] has an MIC [2, 8] greater than 100 µM.

With `CCCCS(=O)(=O)Nc1ccc2[nH]nc(C)c2c1` [5g, N-(3-Methyl-1H-indazol-5-yl)butane-1-sulfonamide] the half-life ([6]; MLM stability t1/2, with NADPH) was 11.5 min, the half-life ([6]; MLM stability t1/2 without NADPH, without NADPH) was 141 min and the “improvement in MIC/whole-cell activity over DG167” value [2] was 2 fold. It also gave an MIC [2, 8] of 0.2 µM (≈ 0.0535 µg/mL), a CC50 [4] of 94 µM and a Kd [7] of 46.5 ± 18.7 nM. It also gave an MLM stability clint [5] of 60.3 μl/mi/mg protein.

`COc1nc2ccc(Br)cc2cc1[C@@H](c1ccccc1)[C@@](O)(CCN(C)C)c1cccc2ccccc12` [BDQ, bedaquiline] gave an MIC [2, 8] of 1 µM (≈ 0.556 µg/mL).

`CC[C@@H](CO)NCCN[C@@H](CC)CO` [EMB, ethambutol] gave an MIC [2, 8] of 0.78 µM (≈ 0.159 µg/mL).

For `CCc1cc(C(N)=S)ccn1` [ETH, ethionamide], the MIC [2, 8] was 25 µM (≈ 4.16 µg/mL).

`COc1c(N2C[C@@H]3CCCN[C@@H]3C2)c(F)cc2c(=O)c(C(=O)O)cn(C3CC3)c12` [Moxi, moxifloxacin] showed an MIC [2, 8] of 0.03 µM (≈ 0.012 µg/mL).

`O=[N+]([O-])c1cn2c(n1)OC[C@@H](OCc1ccc(OC(F)(F)F)cc1)C2` [PA824] showed an MIC [2, 8] of 0.1 µM (≈ 0.0359 µg/mL).

In the case of `CO[C@H]1/C=C/O[C@@]2(C)Oc3c(C)c(O)c4c(O)c(c(/C=N/N5CCN(C)CC5)c(O)c4c3C2=O)NC(=O)/C(C)=C\C=C\[C@H](C)[C@H](O)[C@@H](C)[C@@H](O)[C@@H](C)[C@H](OC(C)=O)[C@@H]1C` [RIF, rifampin], the MIC [2, 8] is reported as 0.001 µM (≈ 0.000823 µg/mL).

With `CC(C)=CCC/C(C)=C/CNCCNC1C2CC3CC(C2)CC1C3` (centres unmarked) [SQ109] the MIC [2, 8] was 0.8 µM (≈ 0.264 µg/mL).
